What was measured:
human eosinophils [1] = test: Chemoattractant-induced migration of eosinophils; assay type: cell-based; details: for migration of human eosinophils induced by chemoattractant: C5a 10^−7 M positive control, eotaxin 50 nM on untreated eosinophils, FIG. 1, FIG. 3
Description: Eosinophil Isolation: Eosinophils were purified from the peripheral blood of allergic donors (Boehme, et al. J. Immunol. 163:1611 (1999)).
(§1) Culture medium alone or medium containing 5-HT (100 nM) or eotaxin (50 nM) was added to the lower chamber. In certain experiments 5-HT was added to only upper or both upper and lower chambers and incubated at 37° C. for 4 h after which the chambers were removed and the number of migrated cells was quantitated and expressed as a % of total cells added to the well.

neutrophils = test: Chemoattractant-induced chemotaxis of neutrophils; assay type: cell-based; details: C5a 10^−7 M positive control; FIG. 1
[2] = system: adrenergic alpha-1 receptors; details: cited from earlier work
OVA-challenged mice [3] = test: AHR to methacholine in murine model of allergic airway inflammation; assay type: in vivo, BALB/c mice; details: 0.5 mg/kg body weight i.p., 15 min before OVA aerosol challenge; versus OVA-challenged mice without antagonist; FIG. 6
Description: Murine model of allergic airway inflammation: Pulmonary eosinophilia was induced in female BALB/c mice. In brief, mice were sensitized by two i.p. injections with 50 μg ovalbumin (OVA) in 200 μl alum (Pierce). Non-sensitized mice received 200 μl of alum alone. […] Fifteen minutes after injection of the inhibitor, mice were exposed to three inhalations (30 min each) of aerosolized OVA (10 mg/ml in 0.9% sterile saline) at 1 h intervals. Non-sensitized mice received an i.p. injection of vehicle and aerosol challenge of saline only. One hour after the last aero-allergen challenge, mice were assessed for airway hyperreactivity/responsiveness (AHR) as described below and subsequently sacrificed and processed for BAL fluid collection to determine eosinophil counts (Broide, et al. Am. J. Respir. Cell Mol. Biol. 18:218 (1998)). Determination of AHR to methacholine: AHR was assessed after completion of the final OVA inhalation challenges, immediately before the mice were sacrificed using a single chamber whole body plethysmograph obtained from Buxco (Troy, N.Y.), as previously described (Broide, et al. Am. J. Physiol. Lung Cell Mol Physiol. 282:[…] (2002)). In this system, an unrestrained, spontaneously breathing mouse is placed into the main chamber of the plethysmograph, and pressure differences between this chamber and a reference chamber are recorded. […]

dopamine D-2 receptors = dopamine D-2 receptors (Homo sapiens, UniProt P14416); details: cited from earlier work
OVA-challenged mice [4] = test: Eosinophil counts in BAL fluid in murine model of allergic airway inflammation; assay type: in vivo, BALB/c mice; details: 0.5 mg/kg body weight i.p.; versus OVA-challenged mice without compound; FIG. 7
Description: Murine model of allergic airway inflammation: Pulmonary eosinophilia was induced in female BALB/c mice. In brief, mice were sensitized by two i.p. injections with 50 μg ovalbumin (OVA) in 200 μl alum (Pierce). Non-sensitized mice received 200 μl of alum alone. […] Fifteen minutes after injection of the inhibitor, mice were exposed to three inhalations (30 min each) of aerosolized OVA (10 mg/ml in 0.9% sterile saline) at 1 h intervals. Non-sensitized mice received an i.p. injection of vehicle and aerosol challenge of saline only. One hour after the last aero-allergen challenge, mice were assessed for airway hyperreactivity/responsiveness (AHR) as described below and subsequently sacrificed and processed for BAL fluid collection to determine eosinophil counts (Broide, et al. Am. J. Respir. Cell Mol. Biol. 18:218 (1998)). […] BALB/c mice were immunized intraperitoneally (i.p.) with alum alone (control), 50 μg OVA in alum and boosted 12 days later with an additional dose of OVA (50 μg). […] Fifteen minutes later, mice were challenged with either nebulized OVA (10 mg/ml) or PBS (challenge control) for 30 min. […] Three hours after the last challenge, AHR was measured in unrestrained mice using BUXCO plethysmography. […] The percentage of the total cells that were eosinophils was quantitated. […] No eosinophils were detected (n.d.) in the BAL fluid of control mice.

5HT1 receptors = details: cited from earlier work
human eosinophils [5] = test: Transwell chamber chemotaxis assay: eotaxin-induced eosinophil migration; assay type: cell-based; details: MDL-100,907 20 μM; eotaxin 50 nM; FIG. 3
Description: as §1, with “Eosinophil Isolation: Eosinophils were purified from the peripheral blood of allergic donors (Boehme, et al. J. Immunol. 163:1611 (1999)). […] Culture” for “Culture”, “well. […] Neuropsychopharmacology 15:116 (1996)), on 5-HT mediated eosinophil chemotaxis was investigated in vitro (FIG. 3).” for “well.”

[6] = system: muscarinic cholinergic receptors; details: cited from earlier work
human eosinophils [7] = test: Transwell chamber chemotaxis assay: inhibition of 5-HT-induced eosinophil chemotaxis; assay type: cell-based; details: 5-HT 100 nM
Description: as §1, with “Eosinophil Isolation: Eosinophils were purified from the peripheral blood of allergic donors (Boehme, et al. J. Immunol. 163:1611 (1999)). […] Culture” for “Culture”, “well. […] Neuropsychopharmacology 15:116 (1996)), on 5-HT mediated eosinophil chemotaxis was investigated in vitro (FIG. 3).” for “well.”

Chain of dopamine D-2 receptors (P14416 whole entry): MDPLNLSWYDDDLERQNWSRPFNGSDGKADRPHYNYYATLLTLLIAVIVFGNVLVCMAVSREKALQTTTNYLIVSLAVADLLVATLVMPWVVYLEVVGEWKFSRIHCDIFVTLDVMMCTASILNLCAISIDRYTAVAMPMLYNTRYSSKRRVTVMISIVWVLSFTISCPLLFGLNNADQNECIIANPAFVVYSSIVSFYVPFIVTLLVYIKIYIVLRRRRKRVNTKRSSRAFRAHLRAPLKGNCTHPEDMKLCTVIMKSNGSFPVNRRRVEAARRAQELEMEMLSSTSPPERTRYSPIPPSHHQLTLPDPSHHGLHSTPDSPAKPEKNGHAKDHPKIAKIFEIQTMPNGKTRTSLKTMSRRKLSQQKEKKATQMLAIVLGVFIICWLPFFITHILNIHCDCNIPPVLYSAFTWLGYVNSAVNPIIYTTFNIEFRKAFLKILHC

## NCCc1c[nH]c2ccc(O)cc12 [5-HT, Serotonin]
Human eosinophils [1]; 5-HT alone, dose-dependent
  concentration at which induced eosinophil migration was maximal: 10^−6 molar (M)
Human eosinophils [1]; 5-HT alone
  migration of human eosinophils induced by chemoattractant: induce migration of human eosinophils in a dose-dependent manner
Human eosinophils [1]; 5-HT in upper or both chambers, FIG. 2
  nature of induced migration (chemotactic or chemokinetic): directed chemotactic response and not chemokinetic
neutrophils
  chemotaxis of neutrophils induced by chemoattractant: did not induce chemotaxis of neutrophils

## COc1cccc([C@H](O)C2CCN(CCc3ccc(F)cc3)CC2)c1OC [MDL-100,907, R-(+)-α-(2,3-dimethoxyphenyl)-1-[2-(4-fluorophenyl)ethyl]-4-piperidine methanol]
[2]
  activity at adrenergic alpha-1 receptors: little detectable activity
OVA-challenged mice [3]
  AHR (airway hyperresponsiveness), BUXCO plethysmography: markedly reduced AHR
Dopamine D-2 receptors
  activity at dopamine D-2 receptors: little detectable activity
OVA-challenged mice [4]
  number of eosinophils present in the BAL fluid: inhibited the number of eosinophils
5HT1 receptors
  activity at 5HT1 receptors: little detectable activity
Human eosinophils [5]
  migratory response to eotaxin of treated eosinophils: robust migratory response
[6]
  activity at muscarinic cholinergic receptors: little detectable activity
Human eosinophils [7]; MDL-100,907 20 μM, versus untreated eosinophils, FIG. 3
  chemotactic response to 5-HT: significantly reduced chemotactic response
Human eosinophils [7]; all ranges from 0.1 μM to 100 μM, FIG. 5
  inhibition of eosinophil chemotaxis to 5-HT: Robust inhibition of eosinophil chemotaxis

## eotaxin: chemokine, eosinophil chemoattractant
Human eosinophils [1]; 5-HT alone
  migration of human eosinophils induced by chemoattractant: robust migratory response

B1: C5a: positive control chemoattractant for eosinophils and neutrophils (protein, UniProt P01031 678-751, looked up)
C5a anaphylatoxin: TLQKKIEEIAAKYKHSVVKKCCYDGACVNNDETCEQRAARISLGPRCIKAFTECCVVASQLRANISHKDMQLGR
modifications: C5a anaphylatoxin
notes: positive control chemoattractant for eosinophils and neutrophils
Human eosinophils [1]; 5-HT alone
  migration of human eosinophils induced by chemoattractant: induce migration of both eosinophils and neutrophils
neutrophils
  chemotaxis of neutrophils induced by chemoattractant: induce migration of both eosinophils and neutrophils

Reference: patent US20060069124A1 (priority 2004, published 2006)
